Structures can show the parent of a compound that is named as a salt. Where two headings read alike, the source gives them in different places.
Key:
[1] = tested on: SARS-CoV-2 pseudovirus; assay: organism not typed; type: cell-based; conditions: read-out: EC50 (S)
[2] = molecular target: RBD domain of S protein (Severe acute respiratory syndrome coronavirus 2, UniProt P0DTC2); assay: biochemical; type: binding, SARS-CoV-2
[3] = tested on: VSV-G pseudotyped lentivirus; assay: microbe, parasite or virus in culture; type: cell-based; conditions: read-out: EC50 (VSVG)
[4] = molecular target: SARS-CoV-2 Spike protein RBD and human ACE2 (Severe acute respiratory syndrome coronavirus 2, UniProt P0DTC2); type: binding, SARS-CoV-2; human

Molecule: CN[C@H](CC(C)C)C(=O)N[C@H]1C(=O)N[C@@H](CC(N)=O)C(=O)N[C@H]2C(=O)N[C@H]3C(=O)N[C@H](C(=O)N[C@H](C(=O)O)c4cc(O)cc(O)c4-c4cc3ccc4O)[C@H](O)c3ccc(c(Cl)c3)Oc3cc2cc(c3O[C@@H]2O[C@H](CO)[C@@H](O)[C@H](O)[C@H]2O[C@H]2C[C@](C)(N)[C@H](O)[C@H](C)O2)Oc2ccc(cc2Cl)[C@H]1O [Vancomycin hydrochloride]
- EC50 ([1]; 48 h): > 100 µM
- Kd [2]: 1600 µM
- EC50 ([3]; Lentivirus): > 100 µM

Molecule: Teicoplanin
- EC50 [1]: > 100 µM
- Blocking of binding of SARS-CoV-2 RBD to ACE2 in vitro [4]: fail to block binding
- Kd ([2]; read-out: KD (equilibrium dissociation constant)): 673 µM
- EC50 [3]: > 100 µM

— PMC9808420 (Biomedicine & Pharmacotherapy, 2023)
